Experimental data from PubChem BioAssay (NCI).
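Briefly, cells in 96-well plates were exposed to five compound concentrations for 48 h, and endpoints were estimated by linear interpolation. GI50: concentration for 50% inhibition of growth. At the TGI there is no net growth.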

Assays:
Assay in all cases: NCI tumour cell line growth inhibition, 48 h
SK-OV-3 ovarian = tested on: SK-OV-3 ovarian
SK-MEL-28 melanoma = tested on: SK-MEL-28 melanoma
ACHN renal = tested on: ACHN renal
OVCAR-5 ovarian = tested on: OVCAR-5 ovarian
SNB-19 CNS = tested on: SNB-19 CNS
SK-MEL-2 melanoma = tested on: SK-MEL-2 melanoma
NCI-H522 lung = tested on: NCI-H522 lung
PC-3 prostate = tested on: PC-3 prostate
UACC-257 melanoma = tested on: UACC-257 melanoma
SR leukemia = tested on: SR leukemia

Row | SMILES | GI50 (SK-OV-3 ovarian) | TGI (SK-OV-3 ovarian) | GI50 (SK-MEL-28 melanoma) | TGI (SK-MEL-28 melanoma) | GI50 (ACHN renal) | TGI (ACHN renal) | GI50 (OVCAR-5 ovarian) | TGI (OVCAR-5 ovarian) | GI50 (SNB-19 CNS) | TGI (SNB-19 CNS) | GI50 (SK-MEL-2 melanoma) | TGI (SK-MEL-2 melanoma) | GI50 (NCI-H522 lung) | TGI (NCI-H522 lung) | GI50 (PC-3 prostate) | TGI (PC-3 prostate) | GI50 (UACC-257 melanoma) | TGI (UACC-257 melanoma) | GI50 (SR leukemia) | TGI (SR leukemia)
1 | COc1ccc2cc(C(=O)/C=C/c3cccc(Cl)c3Cl)ccc2c1 | 24.7 µM | > 62.4 µM | 22.7 µM | > 71.9 µM | 3.76 µM | 33 µM | 36.9 µM | 95.2 µM | 26.2 µM | > 83.3 µM | > 50.9 µM | 98.3 µM | 0.614 µM | > 24.6 µM | 12.4 µM | > 81.9 µM | 39.6 µM | > 100 µM | 0.806 µM | > 100 µM
2 | COc1cc2cc(Oc3ccc(NC(=O)Nc4ccccc4)cc3)c(C)nc2cc1OCCN1CCCCC1 | 7.8 µM | 16.6 µM | 5.41 µM | 9.92 µM | 5.74 µM | 10.3 µM | 6 µM | 11.5 µM | 5.77 µM | 11 µM | 5.96 µM | 12.1 µM | 6.22 µM | 13 µM | 4.49 µM | 9.83 µM | 6.46 µM | 12.4 µM | 0.934 µM | 2.66 µM
3 | CC(C)(C)OC(=O)NCCCCCCCCn1c2c(c3ccccc3c1=O)C(=O)c1ccccc1-2 | 14.4 µM | > 39.4 µM | > 50 µM | > 50 µM | 10.9 µM | > 30 µM | > 43 µM | > 50 µM | 14.9 µM | > 50 µM | 5.61 µM | 19.9 µM | 13.5 µM | > 43.6 µM | > 50 µM | > 50 µM | > 50 µM | > 50 µM | > 34.8 µM | > 50 µM
4 | N#C/C(=C/C=C(\Cl)c1ccc(Cl)cc1)C(N)=O | 14.9 µM | 42.3 µM | 3.28 µM | 9.88 µM | 2.37 µM | 6.39 µM | 4.51 µM | 17.7 µM | 8.13 µM | 22.7 µM | > 52.5 µM | > 93.6 µM | > 22.7 µM | > 62.2 µM | 2.18 µM | 5.55 µM | 6.17 µM | 11.4 µM | 2.26 µM | 20.4 µM
5 | CC(CN)[C@@H]1CC[C@]2(CO)CC[C@]3(C)[C@H](CC[C@@H]4[C@@]5(C)CCC(NCCO)C(C)(C)[C@@H]5CC[C@]43C)[C@@H]12 (stereo partly drawn) | 12.5 µM | 25.2 µM | 1.87 µM | 3.43 µM | 5.2 µM | 17.6 µM | 2.11 µM | 5 µM | 1.8 µM | 3.54 µM | 1.8 µM | 3.42 µM | 1.67 µM | 3.27 µM | 2.53 µM | 11.4 µM | 1.73 µM | 3.15 µM | 1.94 µM | 4.95 µM
6 | O=C1C=CC(=O)C1(Br)Br |  | 43.2 µM |  | 21.8 µM |  | 17.3 µM |  | 25.3 µM |  | 31.8 µM |  | 31.4 µM |  | 14.4 µM |  | 33.1 µM |  | 30.7 µM |  | 29.5 µM
7 | CS(=O)(=O)N1CCN(Cc2cc3nc(-c4cccc5[nH]ncc45)nc(N4CCOCC4)c3s2)CC1 (tested in a mixture with another compound) | 0.0559 µM | 0.328 µM | 0.21 µM |  | 0.0638 µM |  | 0.134 µM |  | 0.328 µM |  | 0.753 µM | 6.67 µM | 0.375 µM | 13 µM | 0.0823 µM |  | 0.0608 µM | 0.42 µM | 0.194 µM | 
8 | COc1ccc(C2NCCc3c2[nH]c2ccccc32)cc1CN1CCN(c2ccc(F)cc2)CC1 (stereo not drawn) | 2.53 µM | 6.01 µM | 1.61 µM | 3.05 µM | 1.87 µM | 3.69 µM | 2.13 µM | 5.2 µM | 3.54 µM | 13 µM | 2.14 µM | 3.93 µM | 1.93 µM | 3.73 µM | 2.21 µM | 5.35 µM | 1.76 µM | 3.26 µM | 1.78 µM | 5.28 µM
9 | COc1ccc(/C=C(/C(=O)N2CCCC2)c2cc(OC)c(OC)c(OC)c2)cc1N | 2.78 µM | > 100 µM | 5.68 µM | > 100 µM | 5.73 µM | > 100 µM | 7.63 µM | > 100 µM | 2.87 µM | > 100 µM | 4.72 µM | > 100 µM | 2.34 µM | > 100 µM | 2.1 µM | > 100 µM | > 100 µM | > 100 µM | 0.719 µM | > 100 µM
10 | C/C=C(\C)C(=O)O[C@@H]1C(O)[C@H]2OC(COC(=O)CCC(=O)CCCCCC[C@H](CCCCC)O[C@@H]3OC(C)[C@H](OC(C)=O)C(O)[C@H]3O2)[C@H]1OC(=O)/C=C/c1ccccc1 (stereo partly drawn) | 0.0419 µM | 13.3 µM | 0.021 µM | 9.59 µM | 0.0175 µM | 12.3 µM | 2.16 µM | > 64.2 µM | 0.156 µM | 15.5 µM | 0.322 µM | 4.27 µM | 0.0265 µM | 2.29 µM | < 0.0132 µM | 16.7 µM | < 0.0109 µM | 1.04 µM | < 0.012 µM | 3.18 µM
11 | CCOC(=O)/C=C1\SC(=Nc2ccc(C#N)cc2)N(CCN2C(=O)/C(=C/C(=O)OCC)SC2=Nc2ccc(C#N)cc2)C1=O | 15.3 µM | 41.7 µM | 8.86 µM | 27.5 µM | 4.62 µM | 17.9 µM | 6.75 µM | 30.8 µM | 2.12 µM | 12.9 µM | 12.1 µM | 28.8 µM | 6.56 µM | 24.3 µM | 1.28 µM | 13.4 µM | 14 µM | 36.4 µM | 0.303 µM | > 100 µM
12 | Cn1ccc(=Nc2ccc(NC(=O)c3ccc(N=c4ccn(C)c5ccc([N+](=O)[O-])cc45)cc3)cc2)cc1 | > 100 µM | > 100 µM | 22.9 µM | 92.3 µM | > 100 µM | > 100 µM | > 100 µM | > 100 µM | 0.923 µM | > 100 µM | 79.1 µM | > 100 µM | 6.88 µM | > 100 µM | 9.2 µM | > 100 µM | 12.5 µM | 74.5 µM | 33 µM | > 100 µM
13 | COc1cc2c3c(n(CCN)c(=O)c2cc1OC)-c1cc2c(cc1C3=O)OCO2 | 2.57 µM | > 100 µM | 1.55 µM | 3.44 µM | 0.275 µM |  | 1.95 µM | 3.74 µM | 1.5 µM | > 100 µM | 3.22 µM | 10.5 µM | 0.771 µM | 6.57 µM | 0.671 µM | 2.89 µM | 3.84 µM | 11.2 µM | 1.56 µM | > 100 µM
14 | CCCCCCCCOc1ccc(/C=N/Nc2cc(C)nc3ccc(Cl)cc23)cc1 | 1.65 µM | 3.1 µM | 1.78 µM | 3.2 µM | 1.74 µM | 3.13 µM | 1.79 µM | 3.2 µM | 2 µM | 3.83 µM | 1.97 µM | 3.59 µM | 1.89 µM | 3.86 µM | 1.5 µM | 3.04 µM | 1.75 µM | 4.03 µM | 1.61 µM | 7.12 µM
15 | Nc1c(C(=O)c2cccc(OCCN3CCOCC3)c2)cnn1-c1ccc(F)cc1 | > 25 µM | > 25 µM | > 25 µM | > 25 µM | > 25 µM | > 25 µM | > 25 µM | > 25 µM | > 25 µM | > 25 µM | > 25 µM | > 25 µM | > 25 µM | > 25 µM | > 25 µM | > 25 µM | > 25 µM | > 25 µM | > 25 µM | > 25 µM
16 | CC[N+](CC)=c1ccc2nc3c(cc(NCc4ccccc4)c4ccccc43)oc-2c1 | 1.12 µM | 2.32 µM | 1.2 µM | 2.47 µM | 0.398 µM | 1.98 µM | 0.681 µM | 2.19 µM | 1.19 µM | 2.51 µM | 0.737 µM | 2.25 µM | 0.149 µM | 0.567 µM | 0.264 µM | 1.63 µM | 0.159 µM | 0.387 µM | 0.27 µM | 0.999 µM
